Assay results reported in PMC9697446 (International Journal of Molecular Sciences, 2022).

Tests used:
porcine liver CES = assay: CES inhibition (4-nitrophenyl acetate hydrolysis); assay type: biochemical; details: ± SEM, n = 3;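 further: values are percent inhibition of CES activity not residual activity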
Method: The esterase profile was estimated using the human erythrocyteAChE, the equine serum BChE, and the porcine liver CES.
Human erythrocyte AChE, equine serum BChE, porcine liver CES, acetylthiocholine iodide (ATCh), butyrylthiocholine iodide (BTCh), 5,5′-dithio-bis-(2-nitrobenzoic acid) (DTNB), 4-nitrophenol acetate (4-NPA), and BNPP were purchased from Sigma-Aldrich (St. Louis, MO, USA).
The assay solution consisted of 0.1 M K/Na phosphate buffer pH 8.0, 25 °C, with the addition of 1 mM 4-nitrophenyl acetate and 0.02 unit/mL of CES. The assays were carried out with a blank containing all components, except CES.
(§1) The test compounds were dissolved in DMSO, and the incubation mixture contained 2% (v/v) of the solvent. Enzyme inhibition was first assessed at a single concentration of 20 µM for each compound after a 5 min incubation at 25 °C in three separate experiments. […] The test compounds were added to the assay solution and preincubated at 25 °C with the enzymes for 5 min, followed by the addition of substrate. A parallel control was made for the assay solution with no inhibitor. Measurements were performed with a FLUOStar Optima microplate reader (BMG Labtech, Ortenberg, Germany). Each experiment was performed in triplicate. The results were expressed as the mean ± SEM. The reaction rates in the presence and absence of the inhibitor were compared, and the percent of residual enzyme activity due to the presence of test compounds was calculated.

EeAChE = target: T1, EeAChE (Electrophorus electricus, UniProt O42275); assay: biochemical; details: means ± SEM (n = 3); read-out: EeAChE Inhibition, IC50
T1 construct: purchased Sigma-Aldrich type VI-S
Method: We selected AChE from electric eels (Electrophorus electricus) for consistency with our other reports and because of its purity, specific activity, and lower cost compared to human AChE [64].
AChE and BChE activities were measured via the Ellman method. The assay solution consisted of 0.1 M K/Na phosphate buffer pH 7.5, 25 °C with the addition of 0.33 mM DTNB, 0.02 unit/mL of AChE or BChE and 1 mM of substrate (ATCh or BTCh, respectively). The assays were carried out with a reagent blank containing all components (except AChE orBChE) in order to account for the non-enzymatic hydrolysis of the substrate. In addition, an enzyme blank was included that contained all components except substrate to account for non-substrate sulfhydryl groups.
as §1
PIand donepezil were purchased from Sigma-Aldrich. […] As the source of the enzyme, electric eel (Elecrophorus electricus) AChE (EeAChE, type VI-S, lyophilized powder, Sigma-Aldrich, Saint Louis, MO, USA) was used. The applicability of this enzyme was shown earlier

[1] = test system: Fe3+-induced LP in rat brain homogenate; assay: Fe3+-induced lipid peroxidation in rat brain homogenate; assay type: biochemical; details: for IC50: LP induced by 0.5 mM Fe3+ in rat brain homogenate, mean ± SD, read-out: Inhibition of LP IC50; for Pro-oxidant activity in rat brain homogenate: 10 nM to 30 µM
Method: The influence of MB and its conjugates with indole derivatives on Fe^3+-induced lipid peroxidation (LP) in rat brain homogenate was studied over a broad concentration range (from 10 nM to 30 µM).
On the day of the experiment, adult Wistar male rats that fasted overnight were euthanized in a CO2 chamber, followed by decapitation. The procedure was in compliance with the Guidelines for Animal Experiments at the Institute of Physiologically Active Compounds of the Russian Academy of Sciences. The brains were rapidly removed and homogenized in 0.12 M HEPES/0.15M NaCl, pH 7.4 buffer (HBS) ([…]) and used immediately for the assay.
The protein concentrations in rat brain homogenate (RBH) were determined by the biuret assay using bovine serum albumin as the standard.
The effect of the compounds on LP of the RBH was studied at […] in 0.25 mL of RBH (2 mg of protein·mL^−1) in the presence of the compounds or the vehicle (DMSO). Lipid peroxidation was induced by Fe^3+ (0.5 mM Fe(NH4)(SO4)2) as an oxidant.
The reaction mixture was incubated for 30 min at 37 °C, then quenched by adding 0.4 mL of quench medium containing 250 mM HCl and 15% (w/v) trichloroacetic acid. The samples were then centrifuged for 10 min at 10,000× g, and 75 µL of the supernatant was transferred to a 96-well plate. Next, 75 µL of 0.8% (w/v) 2-thiobarbituric acid (TBA) was added. The plate was then sealed, heated at 95 °C for 15 min, cooled to 4 °C, and the absorbance at 530–620 nm was measured using a Wallac Victor 3 1420 Multilabel Counter (Perkin Elmer, Turku, Finland).
All the experiments were performed as four independent runs with different brain homogenate preparations and three repeated probes in each run. The average results for each run were normalized between the positive control with the vehicle and Fe^3+ and negative control with only the vehicle. They were presented as the IC50 ± SD values for the antioxidant activities of the compounds which were calculated using GraphPad Prism 7.00 software (San Diego, CA, USA).

[2] = test system: isolated rat liver mitochondria; assay: Mitochondrial membrane potential and calcium-induced depolarization (safranine O); assay type: biochemical; details: for ΔΨm, CI (g/m) / ΔΨm, CII (s/r): depolarization after 10-min incubation with 30 µM compound, mean ± SD; for ΔΨm, CI (g/m): complex I substrates (glutamate, malate); for ΔΨm, CII (s/r): complex II substrate (succinate) in the presence of rotenone; for Effect on calcium-induced mitochondrial depolarization at 30 μM: 12.5 µM CaCl2
Method: The primary screening of new compounds to determine their effect on the mitochondrial membrane potential formed due to respiratory chain (RC) activity after additions of RC substrates was performed on isolated rat liver mitochondria. It can be used to estimate the probability of the potential toxicity of these compounds. Furthermore, the influence of the compounds on the calcium-dependent depolarization of isolated rat liver mitochondria in this assay made it possible to evaluate the effect on the mitochondrial permeability transition.
Rat liver mitochondria were isolated by conventional differential centrifugation from the livers of adult Wistar strain rats that fasted overnight, pH 7.6 [83, 84]. The mitochondrial protein concentration was determined using a biuret procedure with bovine serum albumin as the standard.
Safranine O (10 µM) was used as a membrane potential probe. Fluorescence intensity at 580 nm (excitation at 520 nm) was measured with a Wallac Victor 3 1420 Multilabel Counter (Perkin Elmer, Turku, Finland). The mitochondrial protein concentration was 0.2 mg/mL. The medium for measurements contained 75 mM sucrose, 225 mM mannitol, 10 mM K-HEPES (pH 7.4), 0.02 mM EGTA, and 1 mM KH2PO4. After a 5-min incubation, 5 mM glutamate/malate or 5 mM succinate in the presence of 0.5 µM rotenone were added to produce the mitochondrial potential. Then, the compounds (30 µM) or the same volume of the vehicle (DMSO) were injected into the mitochondrial suspension. After 15–20 min, 12.5 µM CaCl2 was added to each sample to induce the depolarization of mitochondria, and after 5 min, 0.5 µM CCCP was added for maximum depolarization of the mitochondria. The level of depolarization (ΔΨm) was calculated using the fluorescence value after 10-min incubation with 30 µM of compounds (or vehicle) normalized between the fluorescence measurements after substrate and CCCP addition, where fluorescence intensity at 580 nm was 100% after substrate addition and was 0% after CCCP addition.

T1 sequence (O42275 24-633): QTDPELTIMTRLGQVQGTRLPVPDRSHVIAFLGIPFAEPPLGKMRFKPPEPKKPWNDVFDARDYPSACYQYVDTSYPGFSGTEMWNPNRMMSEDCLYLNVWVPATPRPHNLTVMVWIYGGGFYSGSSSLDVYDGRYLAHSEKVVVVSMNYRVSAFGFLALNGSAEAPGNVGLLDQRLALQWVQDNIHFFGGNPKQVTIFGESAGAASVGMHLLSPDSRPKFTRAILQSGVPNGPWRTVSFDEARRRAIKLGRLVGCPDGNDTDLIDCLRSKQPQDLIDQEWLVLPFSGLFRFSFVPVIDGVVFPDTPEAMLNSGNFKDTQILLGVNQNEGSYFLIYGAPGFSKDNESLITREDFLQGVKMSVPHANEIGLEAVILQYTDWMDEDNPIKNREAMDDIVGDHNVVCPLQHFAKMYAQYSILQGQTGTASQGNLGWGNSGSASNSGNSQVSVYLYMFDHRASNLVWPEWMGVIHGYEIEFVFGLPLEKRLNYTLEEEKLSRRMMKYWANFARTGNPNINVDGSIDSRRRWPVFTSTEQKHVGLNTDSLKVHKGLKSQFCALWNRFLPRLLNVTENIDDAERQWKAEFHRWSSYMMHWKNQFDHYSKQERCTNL

CN(C)c1ccc2c(c1)Sc1cc(N(C)C)ccc1N2C(=O)CCn1c2c(c3ccccc31)CCC2 [Compound 4a]
CES inhibition at 20 µM (porcine liver CES): 19.4 ± 1.8%
IC50 (EeAChE): 2350 ± 230 nM
IC50 [1]: 1240 ± 720 nM
ΔΨm, CI (g/m) [2]: 8 ± 1%
ΔΨm, CII (s/r) [2]: 58 ± 1%

CN(C)c1ccc2c(c1)Sc1cc(N(C)C)ccc1N2C(=O)CCn1c2c(c3ccccc31)CCCC2 [Compound 4b]
CES inhibition at 20 µM (porcine liver CES): 22.6 ± 2.1%
IC50 (EeAChE): 2420 ± 180 nM
IC50 [1]: 1120 ± 630 nM
ΔΨm, CI (g/m) [2]: 20 ± 1%
ΔΨm, CII (s/r) [2]: 42 ± 2%

Cc1ccc2c(c1)c1c(n2CCC(=O)N2c3ccc(N(C)C)cc3Sc3cc(N(C)C)ccc32)CCCC1 [Compound 4c]
CES inhibition at 20 µM (porcine liver CES): 14.9 ± 1.3%
IC50 (EeAChE): 1220 ± 10 nM
IC50 [1]: 780 ± 350 nM
ΔΨm, CI (g/m) [2]: 29 ± 1%
ΔΨm, CII (s/r) [2]: 50 ± 3%

COc1ccc2c(c1)c1c(n2CCC(=O)N2c3ccc(N(C)C)cc3Sc3cc(N(C)C)ccc32)CCCC1 [Compound 4d]
CES inhibition at 20 µM (porcine liver CES): 17.3 ± 1.5%
IC50 (EeAChE): 2250 ± 70 nM
IC50 [1]: 1120 ± 620 nM
ΔΨm, CI (g/m) [2]: 30 ± 4%
ΔΨm, CII (s/r) [2]: 53 ± 1%

COc1ccc2c(c1)c1c(n2CCC(=O)N2c3ccc(N(C)C)cc3Sc3cc(N(C)C)ccc32)CCC(C)C1 (centres unmarked) [Compound 4e]
CES inhibition at 20 µM (porcine liver CES): 15.0 ± 1.3%
IC50 (EeAChE): 1920 ± 140 nM
IC50 [1]: 500 ± 360 nM
ΔΨm, CI (g/m) [2]: 33 ± 1%
ΔΨm, CII (s/r) [2]: 50 ± 1%

CN(C)c1ccc2c(c1)Sc1cc(N(C)C)ccc1N2C(=O)CCn1c2c(c3cc(F)ccc31)CCCC2 [Compound 4f]
CES inhibition at 20 µM (porcine liver CES): 6.6 ± 0.7%
IC50 (EeAChE): 1110 ± 120 nM
IC50 [1]: 600 ± 320 nM
ΔΨm, CI (g/m) [2]: 27 ± 1%
ΔΨm, CII (s/r) [2]: 47 ± 1%

CN(C)c1ccc2c(c1)Sc1cc(N(C)C)ccc1N2C(=O)CCn1c2c(c3cc(OC(F)(F)F)ccc31)CCCC2 [Compound 4h]
CES inhibition at 20 µM (porcine liver CES): 3.1 ± 0.5%
IC50 (EeAChE): 890 ± 90 nM
IC50 [1]: 460 ± 320 nM
Effect on calcium-induced mitochondrial depolarization at 30 μM [2]: considerably decrease
ΔΨm, CI (g/m) [2]: 15 ± 2%
ΔΨm, CII (s/r) [2]: 25 ± 1%

CC1CCc2c(c3cc(OC(F)(F)F)ccc3n2CCC(=O)N2c3ccc(N(C)C)cc3Sc3cc(N(C)C)ccc32)C1 (centres unmarked) [Compound 4i]
CES inhibition at 20 µM (porcine liver CES): 3.5 ± 0.4%
IC50 (EeAChE): 410 ± 30 nM
IC50 [1]: 580 ± 260 nM
Effect on calcium-induced mitochondrial depolarization at 30 μM [2]: completely suppress
ΔΨm, CI (g/m) [2]: 6 ± 3%
ΔΨm, CII (s/r) [2]: 18 ± 2%

CN(C)c1ccc2c(c1)Sc1cc(N(C)C)ccc1N2C(=O)CCn1c2c(c3ccccc31)CCCCC2 [Compound 4j]
CES inhibition at 20 µM (porcine liver CES): 11.3 ± 1.2%
IC50 (EeAChE): 2700 ± 90 nM
IC50 [1]: 620 ± 370 nM
ΔΨm, CI (g/m) [2]: 21 ± 9%
ΔΨm, CII (s/r) [2]: 66 ± 1%

Cc1ccc2c(c1)c1c(n2CCC(=O)N2c3ccc(N(C)C)cc3Sc3cc(N(C)C)ccc32)CCCCC1 [Compound 4k]
CES inhibition at 20 µM (porcine liver CES): 5.3 ± 0.6%
IC50 (EeAChE): 4120 ± 370 nM
IC50 [1]: 820 ± 680 nM
ΔΨm, CI (g/m) [2]: 6 ± 3%
ΔΨm, CII (s/r) [2]: 62 ± 1%

CN(C)c1ccc2c(c1)Sc1cc(N(C)C)ccc1N2C(=O)CCn1c2c(c3ccccc31)CCCCCC2 [Compound 4m]
CES inhibition at 20 µM (porcine liver CES): 13.0 ± 1.1%
IC50 (EeAChE): 570 ± 20 nM
IC50 [1]: 1520 ± 790 nM
ΔΨm, CI (g/m) [2]: 23 ± 9%
ΔΨm, CII (s/r) [2]: 57 ± 6%

Cc1ccc2c(c1)c1c(n2CCC(=O)N2c3ccc(N(C)C)cc3Sc3cc(N(C)C)ccc32)CCCCCC1 [Compound 4n]
CES inhibition at 20 µM (porcine liver CES): 33.1 ± 3.1%
IC50 (EeAChE): 950 ± 70 nM
IC50 [1]: 930 ± 680 nM
ΔΨm, CI (g/m) [2]: 23 ± 6%
ΔΨm, CII (s/r) [2]: 65 ± 1%

CN(C)c1ccc2nc3ccc(=[N+](C)C)cc-3sc2c1 [MB, Methylene blue, reference compound]
CES inhibition at 20 µM (porcine liver CES): 12.3 ± 1.5%
Pro-oxidant activity in rat brain homogenate [1]: no pro-oxidant activity
IC50 [1]: 1900 ± 500 nM
Effect on calcium-induced mitochondrial depolarization at 30 μM [2]: completely suppress
ΔΨm, CI (g/m) [2]: 14 ± 7%
ΔΨm, CII (s/r) [2]: 40 ± 9%

CN(C)c1ccc2c(c1)Sc1cc(N(C)C)ccc1N2 [MBH2, reference compound]
CES inhibition at 20 µM (porcine liver CES): 17.2 ± 1.8%
IC50 (EeAChE): 280 ± 20 nM
Pro-oxidant activity in rat brain homogenate [1]: no pro-oxidant activity
IC50 [1]: 530 ± 230 nM
ΔΨm, CI (g/m) [2]: 0%
ΔΨm, CII (s/r) [2]: 18.2 ± 1.1%
